Values quoted from earlier work, collected in publication PMC10643470, “Knockout or inhibition of USP30 protects dopaminergic neurons in a Parkinson’s disease mouse model” (Nature Communications, 2023).

Experiments:
USP30 = details: cited from earlier work
[1] = test system: SHSY5Y neuroblastoma cells; design: method as in PMID 32636217; details: SHSY5Y neuroblastoma cells ref 42; cited from earlier work
[2] = test system: SHSY5Y neuroblastoma cells; design: method as in PMID 32636217; details: SHSY5Y neuroblastoma cells ref 42; cited from earlier work; remark: listed apart in the source

Row | SMILES | USP30 inhibition in biochemical assays (USP30) | Ubiquitylation of TOM20 [1] | Mitophagy levels [2]
1 | CC(C)(C)NS(=O)(=O)c1cccc2c(NC(=O)[C@H](Cc3ccccc3)NC(=O)C3CC3)cccc12 [MF-095] | identified as USP30 inhibitors |  | 
2 | CC(C)(C)NS(=O)(=O)c1cccc2c(NC(=O)[C@H](Cc3ccccc3)NC(=O)C3CCCCC3)cccc12 [MF-094] | identified as USP30 inhibitors |  | 
3 | N#CN1CC[C@@H](NC(=O)c2cc(-c3ccccc3Oc3ccccc3)n[nH]2)C1 [FT3967385] |  | significantly increases | significantly increases
